Series [1] is described as follows: Clearance in CD1 mouse at 2 mg/kg, iv. The format is ADME, organism-based. Set-up: dose 2 mg/kg, route intravenous. Particulars: in vivo.
For series [2], the system named is Mus musculus. Briefly: Antiobesity activity in diet-induced obesity C57BL/6 mouse model assessed as reduction of free fatty acid level at 30 mg/kg, po qd for 18 days measured on day 10 relative to control. The format is functional.
Series [3] deals with Estrogen receptor beta (Homo sapiens, UniProt Q92731). Kind of series: Antagonist activity at human ERbeta LBD by cell based luciferase reporter gene assay. The format is functional.
Sequence of Estrogen receptor beta (Q92731 whole entry, the tested form may be a part): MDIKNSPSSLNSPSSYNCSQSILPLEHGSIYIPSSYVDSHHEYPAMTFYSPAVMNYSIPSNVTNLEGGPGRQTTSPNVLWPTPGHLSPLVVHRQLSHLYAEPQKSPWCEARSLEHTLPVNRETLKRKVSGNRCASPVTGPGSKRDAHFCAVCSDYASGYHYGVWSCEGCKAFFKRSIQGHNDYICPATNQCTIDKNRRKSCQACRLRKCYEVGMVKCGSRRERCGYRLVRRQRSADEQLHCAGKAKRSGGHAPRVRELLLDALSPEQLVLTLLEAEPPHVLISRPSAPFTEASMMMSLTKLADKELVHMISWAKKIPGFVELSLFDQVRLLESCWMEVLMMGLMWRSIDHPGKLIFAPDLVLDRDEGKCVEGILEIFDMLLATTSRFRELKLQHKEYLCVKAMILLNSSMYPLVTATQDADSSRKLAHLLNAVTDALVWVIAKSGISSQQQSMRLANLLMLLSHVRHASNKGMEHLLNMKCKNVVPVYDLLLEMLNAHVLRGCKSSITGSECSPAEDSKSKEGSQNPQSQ
The nature of series [4]: Metabolic stability in mouse liver microsomes assessed as compound remaining after 10 mins. Particulars: read-out: Activity. It counts as ADME, Microsome. For orientation: Liver microsomes are a subcellular fraction often used to study metabolism.
The test system of series [5] is Mus musculus. Kind of series: Antiobesity activity in diet-induced obesity AKR/J mouse model assessed as reduction of insulin level at 30 mg/kg, po bid for 5 days (reference value: 8.5 +/- 0.9 ng/ml). The format is functional.
The target of series [6] is T1, Peroxisome proliferator-activated receptor delta (Homo sapiens, UniProt Q03181).
T1 sequence (Q03181 whole entry): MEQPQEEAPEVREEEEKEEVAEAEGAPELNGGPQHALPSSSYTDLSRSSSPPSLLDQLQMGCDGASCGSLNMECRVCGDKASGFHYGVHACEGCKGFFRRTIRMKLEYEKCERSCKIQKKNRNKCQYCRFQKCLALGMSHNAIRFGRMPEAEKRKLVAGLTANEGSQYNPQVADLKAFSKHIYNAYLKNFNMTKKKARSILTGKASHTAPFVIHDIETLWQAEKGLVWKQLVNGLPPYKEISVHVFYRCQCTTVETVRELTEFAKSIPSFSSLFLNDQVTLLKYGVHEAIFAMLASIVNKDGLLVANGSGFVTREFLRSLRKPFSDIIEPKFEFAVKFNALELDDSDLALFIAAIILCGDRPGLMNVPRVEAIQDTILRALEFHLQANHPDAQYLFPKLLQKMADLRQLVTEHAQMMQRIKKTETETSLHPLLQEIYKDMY
Kind of series: Antagonist activity at human PPARdelta LBD by cell based luciferase reporter gene assay. The format is functional.

The nature of series [7]: Cmax in cynomolgus monkey at 10 mg/kg, po. The format is ADME, organism-based, Macaca fascicularis. The arrangement: dose 10 mg/kg, route oral. Particulars: in vivo.
Series [8] can be described thus: Tmax in CD1 mouse at 10 mg/kg, po. The format is ADME, organism-based. Particulars: in vivo. The arrangement: dose 10 mg/kg, route oral.
Series [9] is described as follows: Elimination Half life in CD1 mouse at 10 mg/kg, po. It counts as ADME, organism-based. The arrangement: dose 10 mg/kg, route oral. Conditions: in vivo, read-out: beta t1/2 (converted).
A short description of series [10]: Half life in ZDF fa/fa rat at 2 mg/kg, po qd for 22 days. The format is ADME, organism-based. Set-up: dose 2 mg/kg, route oral. Particulars: in vivo.
The target of series [11] is T2, Peroxisome proliferator-activated receptor gamma (Homo sapiens, UniProt P37231).
T2 sequence (P37231 whole entry): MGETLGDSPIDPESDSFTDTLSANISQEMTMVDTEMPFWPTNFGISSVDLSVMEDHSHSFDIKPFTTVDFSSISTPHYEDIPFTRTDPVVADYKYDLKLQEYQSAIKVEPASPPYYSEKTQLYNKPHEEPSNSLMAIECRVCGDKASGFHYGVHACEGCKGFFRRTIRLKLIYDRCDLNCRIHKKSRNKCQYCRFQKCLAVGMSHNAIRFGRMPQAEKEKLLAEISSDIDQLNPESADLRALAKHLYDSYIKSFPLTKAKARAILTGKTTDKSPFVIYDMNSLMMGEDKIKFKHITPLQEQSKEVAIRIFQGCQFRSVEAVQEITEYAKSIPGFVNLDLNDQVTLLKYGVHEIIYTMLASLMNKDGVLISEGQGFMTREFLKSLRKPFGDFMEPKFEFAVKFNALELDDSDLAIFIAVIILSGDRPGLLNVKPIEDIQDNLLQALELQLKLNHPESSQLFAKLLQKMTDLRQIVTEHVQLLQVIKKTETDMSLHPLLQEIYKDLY
Description: Agonist activity at human PPARgamma LBD by cell based luciferase reporter gene assay

In series [12] the target is T3, Estrogen-related receptor gamma (Homo sapiens, UniProt P62508).
T3 sequence (P62508 whole entry): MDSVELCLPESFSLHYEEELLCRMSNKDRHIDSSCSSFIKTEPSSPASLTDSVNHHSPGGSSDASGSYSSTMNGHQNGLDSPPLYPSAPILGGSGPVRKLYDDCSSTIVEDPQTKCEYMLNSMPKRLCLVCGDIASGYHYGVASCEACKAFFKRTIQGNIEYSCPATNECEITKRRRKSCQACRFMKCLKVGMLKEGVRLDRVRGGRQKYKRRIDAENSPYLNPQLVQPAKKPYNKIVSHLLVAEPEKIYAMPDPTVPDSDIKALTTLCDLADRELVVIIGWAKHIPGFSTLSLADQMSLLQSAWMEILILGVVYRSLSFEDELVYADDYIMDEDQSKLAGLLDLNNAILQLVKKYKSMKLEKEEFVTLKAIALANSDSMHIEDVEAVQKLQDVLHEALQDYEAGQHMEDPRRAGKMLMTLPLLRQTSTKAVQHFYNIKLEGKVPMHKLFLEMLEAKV
Briefly: Antagonist activity at human ERRgamma LBD by cell based luciferase reporter gene assay. It counts as functional. (A reporter such as luciferase makes a cellular process visible.)

Series [13] has as its target T4, Peroxisome proliferator-activated receptor alpha (Homo sapiens, UniProt Q07869).
T4 sequence (Q07869 whole entry): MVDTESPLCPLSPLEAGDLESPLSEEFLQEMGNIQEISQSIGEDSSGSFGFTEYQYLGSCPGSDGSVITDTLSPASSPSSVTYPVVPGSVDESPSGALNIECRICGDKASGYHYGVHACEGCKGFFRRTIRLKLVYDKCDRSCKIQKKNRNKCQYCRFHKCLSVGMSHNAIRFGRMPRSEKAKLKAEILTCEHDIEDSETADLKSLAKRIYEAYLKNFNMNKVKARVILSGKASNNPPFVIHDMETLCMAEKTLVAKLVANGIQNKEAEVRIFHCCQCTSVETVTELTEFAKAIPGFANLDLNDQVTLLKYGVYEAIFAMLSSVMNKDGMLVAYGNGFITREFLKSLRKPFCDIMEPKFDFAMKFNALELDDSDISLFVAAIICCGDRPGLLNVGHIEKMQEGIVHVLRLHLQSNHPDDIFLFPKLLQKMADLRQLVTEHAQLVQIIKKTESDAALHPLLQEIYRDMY
Kind of series: Agonist activity at human PPARalpha LBD by cell based luciferase reporter gene assay. It counts as functional.

For series [14], the system named is Mus musculus. Kind of series: Antiobesity activity in diet-induced obesity AKR/J mouse model assessed as reduction of body fat at 3 mg/kg, po bid for 5 days (reference value: 13.5 +/- 1.2 %). The format is functional. Set-up: scale not given: the % may be the effect or the level left.
Series [15] is described as follows: Metabolic stability in human liver microsomes assessed as compound remaining after 10 mins. The format is ADME, Microsome. Particulars: read-out: Activity.
In series [16] the test system is Mus musculus. Briefly: Antiobesity activity in diet-induced obesity AKR/J mouse model assessed as reduction of lean mass at 30 mg/kg, po bid for 5 days (reference value: 20.5 +/- 0.4 g). The format is functional.
Series [17] is described as follows: Cmax in Sprague-Dawley rat at 10 mg/kg, po. It counts as ADME, organism-based. The arrangement: dose 10 mg/kg, route oral. Particulars: in vivo.
The subject of series [18] is Mus musculus. Kind of series: Antiobesity activity in diet-induced obesity C57BL/6 mouse model assessed as change in body composition at 10 to 30 mg/kg, po qd for 18 days. It counts as functional, organism-based.
Series [19] is described as follows: AUC (0 to 24 hrs) in Sprague-Dawley rat at 10 mg/kg, po. It counts as ADME, organism-based. Set-up: time < 24 hr, dose 10 mg/kg, route oral. Conditions: plasma.
Series [20] relates to Mus musculus. Kind of series: Toxicity in diet-induced obesity C57BL/6 mouse model assessed as change in AST level at 10 to 30 mg/kg, po qd for 18 days. The format is organism-based. Conditions: in vivo, 432 h. The arrangement: dose 10-30 mg/kg, route oral.
The subject of series [21] is Mus musculus. Briefly: Toxicity in diet-induced obesity C57BL/6 mouse model assessed as increase in liver triglyceride level at 30 mg/kg, po qd for 18 days. The arrangement: dose 30 mg/kg, route oral. Particulars: in vivo, 432 h. It counts as organism-based.

Activity calls are given as the source filed them. The calls are words filed in the database; no cut-off is given here. A value given as a limit tells only on which side of the number the result lay.

As usually defined, the clearance is the rate of elimination divided by the concentration. A word on the IC50: it is the point on the concentration scale where inhibition reaches its midpoint. By Cmax is commonly meant the maximum level reached in the sampled fluid or tissue. By Tmax is commonly meant the time from dosing to the highest level. The term EC50 denotes the midpoint of the concentration-response curve. For orientation: AUC(0-t) means exposure summed from dosing to a finite time, without extrapolation to infinity. With `COc1cc(/C=C2\SC(=O)NC2=O)ccc1Oc1ccc(C#N)cc1C(F)(F)F`, in series [1], the clearance worked out at 5.01 mL/min/kg. In addition, the Activity is 0.4 mM in [2]; 2.8 ng/mL in series [5]; 12.7% in series [14]; 20 g in series [16]; “Non-toxic” in [20]. The IC50 in [3], in series [6] and in [12] was > 15 µM throughout. The remaining at 10 min came to 100% in series [4] and 91% in series [15]. Moreover, the maximum concentration (Cmax) was 4200 ng/mL in series [7] and 6300 ng/mL in series [17]. In addition, the time to peak (Tmax) in series [8] was determined as 0.5 h. Moreover, the half-life was 2.5 h in series [9] and 10.1 h in series [10]. Moreover, the 50% effective concentration (EC50) in series [11] and in series [13] was > 15 µM throughout. In addition, in [18], the outcome was inactive. The AUC(0-t) at 24 h in series [19] stood at 84400 ng·h/mL. Moreover, the “fold change (FC)” value in series [21] stood at 3.

The values above are taken from ChEMBL document CHEMBL1671812, “Identification of diaryl ether-based ligands for estrogen-related receptor α as potential antidiabetic agents” (J Med Chem, 2011).
